From ChEMBL document CHEMBL1201862, “PubChem BioAssay data set” (2004) come the findings set out here.

Holding throughout (assay): NCI-60 cell line screen, 48 h
The test system of assay [1] is K562.
Assay [2] concerns M14.
For assay [3], the system named is Malme-3M.
Assay [4] has as its system NCI-H226.
For assay [5], the system named is NCI-H460.
For assay [6], the system named is OVCAR-5.
Assay [7] has as its system OVCAR-8.
Assay [8] has as its system RPMI-8226.
Assay [9] relates to SF-539.
For assay [10], the system named is SK-MEL-28.
The test system of assay [11] is SK-OV-3.
In assay [12] the test system is SNB-19.
Assay [13] has as its system U-251.
Assay [14] deals with HOP-92.
For assay [15], the system named is RXF 393.
Assay [16] deals with TK-10.
Assay [17] relates to A498.

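A five-concentration, 48-hour dose response in 96-well plates underlies each endpoint, interpolated linearly between surrounding concentrations. GI50 = concentration required for 50% inhibition of growth.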 The source made the active and inactive calls. No stated cut-off is given here; in the data, active = GI50 up to about 1.1 µM and inactive = higher. Bounds are passed on as bounds.

Turning to `Cc1c2n(c3ccccc13)CC1C2N(C)OC1(C)C` (stereo not drawn), the GI50 in assay [1], in [2], in [3], in assay [4], in [5] and in assay [6] was > 100 µM (inactive) throughout. In addition, the GI50 in [7], in assay [8], in assay [9], in assay [10], in assay [11] and in assay [12] was > 100 µM (inactive) throughout. The GI50 in [13] is > 10 µM (inactive).

In the case of `COC(=O)N/N=C(\C)CC(=O)Nc1cccc([N+](=O)[O-])c1`, the GI50 in [14], in assay [1], in [2], in assay [3], in assay [4] and in assay [5] was > 100 µM (inactive) each time. For the same molecule, the GI50 in assay [6], in [7], in [8], in assay [15], in [9] and in [10] was > 100 µM (inactive) each time. Moreover, the GI50 in [11], in [16] and in [13] was > 100 µM (inactive) in each case.

For `CCC1C(=O)OCc2c1cc1n(c2=O)CCC12OCCO2` (stereo not drawn), the GI50 in assay [17], in assay [14], in assay [1], in [2], in [4] and in [5] was > 100 µM (inactive) each time. The GI50 in assay [6], in assay [7], in assay [8], in [9], in [10] and in [11] was > 100 µM (inactive) each time. For the same molecule, the GI50 in [12], in [16] and in assay [13] was > 100 µM (inactive) throughout.

`Cc1ccc(S(=O)(=O)C2c3nc4ccccc4cc3-c3nc4ccccc4nc32)cc1` (stereo not drawn): the GI50 in assay [17] was > 100 µM (inactive); in [14], > 100 µM (inactive); in [1] it was > 100 µM (inactive); in assay [2], > 100 µM (inactive); in [3] it was > 100 µM (inactive); in assay [5] it was > 10 µM (inactive). The GI50 is > 100 µM (inactive) in assay [6]; > 100 µM (inactive) in [7]; > 100 µM (inactive) in assay [8]; > 100 µM (inactive) in assay [9]; > 100 µM (inactive) in [10]; 0.693 µM (active) in assay [11]. The GI50 in [12], in assay [16] and in [13] was > 100 µM (inactive) throughout.

Turning to `O=[N+]([O-])c1ccc(NSc2ccccc2)cc1`, the GI50 in assay [17] was 2.37 µM (inactive); in assay [14], 28.7 µM (inactive); in [1], 23.6 µM (inactive); in [2] it was 20.5 µM (inactive); in assay [3] it was > 100 µM (inactive); in assay [5], 18.3 µM (inactive). The GI50 was 89.7 µM (inactive) in assay [6]; 19.8 µM (inactive) in assay [7]; > 10 µM (inactive) in [8]; 20 µM (inactive) in assay [15]; 18.7 µM (inactive) in assay [9]; 45.3 µM (inactive) in [10]. Further, the GI50 in assay [11] was 29.9 µM (inactive); in [12], 70.3 µM (inactive); in assay [16], 44.7 µM (inactive); in [13] it was 29.7 µM (inactive).

In the case of `O=S1(=O)CSc2ccc3ccccc3c2-c2c1ccc1ccccc21`, the GI50 in assay [14], in assay [1], in assay [2], in assay [3], in assay [5] and in assay [6] was > 100 µM (inactive) each time. In addition, the GI50 in [7], in assay [15], in assay [9], in [10], in assay [12] and in [16] was > 100 µM (inactive) throughout. Further, the GI50 in assay [13] was > 100 µM (inactive).

With `COc1ccc(CCn2c(=O)c3ccccc3n(C)c2=O)cc1`, the GI50 in assay [17] was 62.2 µM (inactive); in assay [1], 4.21 µM (inactive); in [2], 26.1 µM (inactive); in assay [3], 48 µM (inactive); in assay [5], 60.1 µM (inactive); in assay [6] it was > 100 µM (inactive). The GI50 in assay [7] was 58.6 µM (inactive); in assay [8] it was 39 µM (inactive); in assay [9], 41.6 µM (inactive); in assay [10], 57.5 µM (inactive); in assay [11] it was 14.6 µM (inactive); in [12] it was > 100 µM (inactive). Further, the GI50 in assay [16] is 54.8 µM (inactive); in [13], 66.8 µM (inactive).

As to `O=C(O)c1c[nH]c2c(ccc3ncccc32)c1=O`, the GI50 in [17], in assay [1], in [2], in [3], in assay [5] and in [6] was > 100 µM (inactive) each time. For the same molecule, the GI50 in assay [7], in assay [15], in assay [9], in [10], in assay [11] and in assay [12] was > 100 µM (inactive) throughout. Also, the GI50 in assay [16] and in assay [13] was > 100 µM (inactive) in each case.

Turning to `CC(=O)OCC1OC(OC2C(CSC3OC(COC(C)=O)C(OC(C)=O)C(OC(C)=O)C3OC(C)=O)OC(OC(C)=O)C(OC(C)=O)C2OC(C)=O)C(OC(C)=O)C(OC(C)=O)C1OC(C)=O` (stereo not drawn), the GI50 in assay [14] is > 100 µM (inactive); in assay [1], > 100 µM (inactive); in [2], > 100 µM (inactive); in assay [3], > 100 µM (inactive); in [4] it was 47.5 µM (inactive); in [5], > 100 µM (inactive). For the same molecule, the GI50 in assay [6] is 23.7 µM (inactive); in [7], > 100 µM (inactive); in assay [8] it was > 100 µM (inactive); in assay [9] it was > 100 µM (inactive); in [10], > 100 µM (inactive); in [11], > 100 µM (inactive). Moreover, the GI50 in assay [12], in [16] and in [13] was > 100 µM (inactive) in each case.

With `Nc1c(S(=O)(=O)c2ccc(Cl)cc2)c2nc3ccccc3nc2n2ccnc12`, the GI50 in assay [14] is > 100 µM (inactive); in assay [1], > 100 µM (inactive); in [2], > 100 µM (inactive); in assay [3] it was > 100 µM (inactive); in [4] it was 18.3 µM (inactive); in assay [5] it was 63.4 µM (inactive). Moreover, the GI50 in [6] was > 100 µM (inactive); in assay [7], 48.4 µM (inactive); in assay [8], > 100 µM (inactive); in assay [9], 17.4 µM (inactive); in [10] it was > 100 µM (inactive); in assay [11] it was 38.4 µM (inactive). Further, the GI50 in assay [12] is 48.5 µM (inactive); in [16], 24.9 µM (inactive); in assay [13] it was 61.8 µM (inactive).

Regarding `O=[N+]([O-])c1ccc(-c2csc(=[N+]3CCCCC3)s2)cc1`, the GI50 in [17] is 2.18 µM (inactive); in assay [14], 26.1 µM (inactive); in assay [1], 9.71 µM (inactive); in assay [2], 36.1 µM (inactive); in assay [3], 12.1 µM (inactive); in assay [5] it was 13.6 µM (inactive). The GI50 in assay [6] was 9.75 µM (inactive); in [7], 3.48 µM (inactive); in assay [8], 20.2 µM (inactive); in assay [15], > 69.2 µM (inactive); in assay [9], 19.8 µM (inactive); in [10] it was 36.5 µM (inactive). Further, the GI50 is 37.7 µM (inactive) in assay [11], 4.88 µM (inactive) in [12], > 83.4 µM (inactive) in assay [16] and 2.54 µM (inactive) in assay [13].

As to `[O-][S+]1c2ccccc2N=C(c2ccc3ccccc3c2)CC1c1ccccc1F` (stereo not drawn), the GI50 in assay [17] was 22.3 µM (inactive); in assay [1] it was 78.2 µM (inactive); in assay [2] it was > 100 µM (inactive); in assay [3], > 100 µM (inactive); in [4], 82.2 µM (inactive); in assay [5], > 100 µM (inactive). In addition, the GI50 in [6] is > 100 µM (inactive); in [7], > 100 µM (inactive); in [8] it was 58.6 µM (inactive); in [15] it was > 100 µM (inactive); in assay [9], > 100 µM (inactive); in assay [10], > 100 µM (inactive). The GI50 in [11], in [12], in assay [16] and in [13] was > 100 µM (inactive) each time.

On to `Cc1cc(C)nc(Sc2c([N+](=O)[O-])ncn2C)n1`, for which the GI50 was > 100 µM (inactive) in [17]; > 100 µM (inactive) in assay [14]; > 100 µM (inactive) in [1]; > 100 µM (inactive) in assay [2]; 94.6 µM (inactive) in assay [3]; > 100 µM (inactive) in [4]. Moreover, the GI50 in [5], in assay [6], in [7], in assay [8], in assay [9] and in assay [10] was > 100 µM (inactive) each time. Besides, the GI50 in [11], in assay [12], in [16] and in assay [13] was > 100 µM (inactive) each time.
